In US4216324A, “1-Difluoromethyl-6,7-methylenedioxy-1,4-dihyd ro-4-oxo-3-quinolinecarboxylic acid” (E. I. Du Pont de Nemours and Company, priority 1978, dated 1980):
≈ marks a conversion by molar mass, not a printed value. Like-named read-outs stand apart in the source and are kept apart here.

How the values were obtained:
Aero. cloacae = assay: In vitro minimum inhibitory concentration (MIC), tube dilution test; type: cell-based; settings: Enterobacter cloacae; Aero. cloacae (39A); brain-heart infusion broth, 20hour incubation at 37° C.; read-out: Minimal Inhibitory Test Conens. (MIC)
Description: (§1) A. In vitro: mimimum inhibitory concentration (MIC)
(§2) The compound was tested in a standard bacteriological tube dilution test for MIC for a variety of bacteria. Stock cultures of the bacteria listed in Table 1 were grown in bacterial culture media at 37° C. overnight and diluted in culture tubes to a previously determined concentration proper for the test. The compound was added to result in final concentrations of 10, 2, 0.4 and 0.08 μg/ml. These were incubated for 18 hours at 37° C. and then observed to determine if growth of bacteria had occurred. The lowest concentration of the compound that inhibited bacterial growth in the MIC.
(§3) *brain-heart infusion broth, 20hour incubation at 37° C.

Bac. subtilis = assay: as above; type: cell-based; settings: Bacillus subtilis; Bac. subtilis (07A); brain-heart infusion broth, 20hour incubation at 37° C.; read-out: Minimal Inhibitory Test Conens. (MIC)
Description: as §1, §2, §3

E. coli = assay: as above; type: cell-based; settings: Escherichia coli, 20 h, brain-heart infusion broth, 20hour incubation at 37° C., read-out: Minimal Inhibitory Test Conens. (MIC)
Description: as §1, §2, §3

Kleb. aerobacter = assay: as above; type: cell-based; settings: Kleb. aerobacter (20F); brain-heart infusion broth, 20hour incubation at 37° C.; read-out: Minimal Inhibitory Test Conens. (MIC)
Description: as §1, §2, §3

Proteus vulgaris = assay: as above; type: cell-based; settings: Proteus vulgaris (14P); brain-heart infusion broth, 20hour incubation at 37° C.; read-out: Minimal Inhibitory Test Conens. (MIC)
Description: as §1, §2, §3

Sal. choleraesuis = assay: as above; type: cell-based; settings: Salmonella enterica, 20 h, read-out: Minimal Inhibitory Test Conens. (MIC)
Description: as §1, §2, §3

Sal. gallinarum = assay: as above; type: cell-based; settings: Salmonella enterica, 20 h, brain-heart infusion broth, 20hour incubation at 37° C., read-out: Minimal Inhibitory Test Conens. (MIC)
Description: as §1, §2, §3

Sal. typhimurium = assay: as above; type: cell-based; settings: Salmonella enterica, 20 h, brain-heart infusion broth, 20hour incubation at 37° C., read-out: Minimal Inhibitory Test Conens. (MIC)
Description: as §1, §2, §3

Sal. typhi = assay: as above; type: cell-based; settings: Salmonella enterica, TYPHI, 20 h, brain-heart infusion broth, 20hour incubation at 37° C.
Description: as §1, §2, §3

Ser. marcescens = assay: as above; type: cell-based; settings: Serratia marcescens; Ser. marcescens (22); brain-heart infusion broth, 20hour incubation at 37° C.; read-out: Minimal Inhibitory Test Conens. (MIC)
Description: as §1, §2, §3

Shiq. dysenteriae = assay: as above; type: cell-based; settings: 20 h, read-out: Minimal Inhibitory Test Conens. (MIC)
Description: as §1, §2, §3

Staph. aureus = assay: as above; type: cell-based; settings: Staphylococcus aureus; Staph. aureus (08F); brain-heart infusion broth, 20hour incubation at 37° C.; read-out: Minimal Inhibitory Test Conens. (MIC)
Description: as §1, §2, §3

Strep. pyogenes = assay: as above; type: cell-based; settings: Streptococcus pyogenes; Strep. pyogenes (10V); brain-heart infusion broth, 20hour incubation at 37° C.; read-out: Minimal Inhibitory Test Conens. (MIC)
Description: as §1, §2, §3

in vivo = settings: mouse, in vivo, po; for TD50: doses given in mg./kg
Description: 17- to 24-hour fasted female white mice, 16-20 g. each, or rats, 70-90 g. each were dosed orally with test drug (or standard) at 0, 4, 12, 36, 108 or 324 mg./kg.
Ataxia--The mouse or rat was placed upright on the bench top facing away from the observer. Motor incoordination manifested by abnormal gait or lack of precision during purposive movements constituted ataxia.
Vertical Bar--The mouse or rat was swung by the tail with head pointing down to a 0.5" diameter (1" diameter for rats), 30.5 cm long vertical rod covered with adhesive tape. Inability to grip the rod with the front paws, sliding or failure to move after being prodded constituted vertical bar loss.
Body Temperature--The rectal temperatures of the mice and rats were taken using a KC-1 thermocouple probe.
Excitement and Irritability--Increased spontaneous motor activity, running and jumping prior to handling were recorded as excitement. Upon handling, jumping, jerking, biting and squeaking were recorded as irritability.
Anorexia--At the end of the 0.5 hour testing period, each mouse was transferred to an individual, clear, Lucite® compartment (13.3 cm×12.7 cm×12.7 cm) with a 0.64 cm×0.64 cm wire mesh floor. Inside each compartment there was a section of a black Lucite® bar [13 cm×1.2 cm×1.2 cm) with ten spot depressions (0.8 cm diameter) each containing 0.05 ml. of 50% sweetened condensed milk. 30 Minutes later the number of milk spots consumed was counted. 5 Mice per drug dose can drink a maximum of 50 spots (2.5 ml. of milk). 15 or fewer spots consumed by 5 mice constituted anorexia.

[1] = General pharmacology screen in rats; settings: rat, in vivo, po; for TD50: doses given in mg./kg
Pseud. aeruginosa = assay: In vitro minimum inhibitory concentration (MIC), tube dilution test; type: cell-based; settings: Pseudomonas aeruginosa, 20 h, brain-heart infusion broth, 20hour incubation at 37° C., read-out: Minimal Inhibitory Test Conens. (MIC)

## O=C(O)c1cn(C(F)F)c2cc3c(cc2c1=O)OCO3 [DFMQ, 1-difluoromethyl-6,7-methylenedioxy-1,4-dihydro-4-oxo-3-quinolinecarboxylic acid]
Aero. cloacae
  MIC: < 0.08 µg/mL
Bac. subtilis
  MIC: < 0.08 µg/mL
E. coli; E. coli (06-2B)
  MIC: 2 µg/mL (≈ 7.06 µM)
E. coli; E. coli (06-2F)
  MIC: 0.4 µg/mL (≈ 1.41 µM)
E. coli; E. coli (06-2L)
  MIC: 10 µg/mL (≈ 35.3 µM)
E. coli; E. coli (06-2M)
  MIC: < 0.08 µg/mL
E. coli; E. coli (06C)
  MIC: 2 µg/mL (≈ 7.06 µM)
E. coli; E. coli (06I)
  MIC: 10 µg/mL (≈ 35.3 µM)
E. coli; E. coli (06J)
  MIC: 0.4 µg/mL (≈ 1.41 µM)
E. coli; E. coli (06K)
  MIC: 0.4 µg/mL (≈ 1.41 µM)
E. coli; E. coli (06L)
  MIC: 0.4 µg/mL (≈ 1.41 µM)
E. coli; E. coli (06M)
  MIC: 0.4 µg/mL (≈ 1.41 µM)
E. coli; E. coli (06S)
  MIC: 0.4 µg/mL (≈ 1.41 µM)
E. coli; E. coli (06V)
  MIC: 0.4 µg/mL (≈ 1.41 µM)
E. coli; E. coli (06X)
  MIC: 2 µg/mL (≈ 7.06 µM)
E. coli; E.coli (06-2D)
  MIC: 2 µg/mL (≈ 7.06 µM)
Kleb. aerobacter
  MIC: 2 µg/mL (≈ 7.06 µM)
Proteus vulgaris
  MIC: 2 µg/mL (≈ 7.06 µM)
Sal. choleraesuis
  MIC: < 0.08 µg/mL
Sal. gallinarum; Sal. gallinarum (04C)
  MIC: 2 µg/mL (≈ 7.06 µM)
Sal. gallinarum; Sal. gallinarum (04D)
  MIC: 0.4 µg/mL (≈ 1.41 µM)
Sal. typhimurium; Sal. typhimurium (03A)
  MIC: 0.4 µg/mL (≈ 1.41 µM)
Sal. typhimurium; Sal. typhimurium (03C)
  MIC: 0.4 µg/mL (≈ 1.41 µM)
Sal. typhimurium; Sal. typhimurium (03K)
  MIC: < 0.08 µg/mL
Sal. typhi; read-out: Minimal Inhibitory Test Conens. (MIC), Sal. typhi (02A)
  MIC: 2 µg/mL (≈ 7.06 µM)
Sal. typhi; read-out: Minimal Inhibitory Test Conens. (MIC), Sal. typhi (02B)
  MIC: 0.4 µg/mL (≈ 1.41 µM)
Ser. marcescens
  MIC: 0.4 µg/mL (≈ 1.41 µM)
Shiq. dysenteriae
  MIC: 0.4 µg/mL (≈ 1.41 µM)
Staph. aureus
  MIC: 0.4 µg/mL (≈ 1.41 µM)
Strep. pyogenes
  MIC: < 0.08 µg/mL
In vivo
  LD50 at 24 h: > 450 mg/kg
In vivo; ED50 Anoroxia, 15 or fewer milk spots consumed by 5 mice
  TD50: > 450 mg/kg
In vivo; ED50 Ataxia
  TD50: > 450 mg/kg
In vivo; ED50 Excitation
  TD50: > 450 mg/kg
In vivo; ED50 Hypertherm., rectal temperature
  TD50: > 450 mg/kg
In vivo; ED50 Hypotherm., rectal temperature
  TD50: > 450 mg/kg
In vivo; ED50 Irritability
  TD50: > 450 mg/kg
In vivo; ED50 Vert. Bar, vertical bar loss
  TD50: > 450 mg/kg
[1]
  LD50 at 24 h: > 324 mg/kg
[1]; read-out: ED50 Ataxia
  TD50: > 324 mg/kg
[1]; read-out: ED50 Excitation
  TD50: > 324 mg/kg
[1]; read-out: ED50 Irritability
  TD50: > 324 mg/kg
[1]; rectal temperature, read-out: ED50 Hypertherm.
  TD50: > 324 mg/kg
[1]; rectal temperature, read-out: ED50 Hypotherm.
  TD50: > 324 mg/kg
[1]; vertical bar loss, read-out: ED50 Vert. Bar
  TD50: > 324 mg/kg
Pseud. aeruginosa; Pseud. aeruginosa (11B)
  MIC: 10 µg/mL (≈ 35.3 µM)
Pseud. aeruginosa; Pseud. aeruginosa (11C)
  MIC: 2 µg/mL (≈ 7.06 µM)
Pseud. aeruginosa; Pseud. aeruginosa (11D)
  MIC: 10 µg/mL (≈ 35.3 µM)
Pseud. aeruginosa; Pseud. aeruginosa (11G)
  MIC: 10 µg/mL (≈ 35.3 µM)
Pseud. aeruginosa; Pseud. aeruginosa (11I)
  MIC: 2 µg/mL (≈ 7.06 µM)
Pseud. aeruginosa; Pseud. aeruginosa (11J)
  MIC: 10 µg/mL (≈ 35.3 µM)
